Assays:
[1] = body and spleen weight / systemic toxicity, combination with Dox; type: in vivo, BALB/c mice; details: Dox 5 mg/kg i.p. every 72 hr; n=4 mice per group
[2] = test system: mammary tumor; details: ref [87]; cited from earlier work

| Structure (SMILES) | body and spleen weight [1] | tumor ECM normalization and chemotherapy response [2] |
| --- | --- | --- |
| COc1cccc2c1C(=O)c1c(O)c3c(c(O)c1C2=O)C[C@@](O)(C(=O)CO)C[C@@H]3O[C@H]1C[C@H](N)[C@H](O)[C@H](C)O1 [Dox, doxorubicin] | loss of body and spleen weight | – |
| Cc1ccc(=O)n(-c2ccccc2)c1 [Pirfenidone] | – | normalizes the tumor ECM for enhanced chemotherapy response |

— PMC11952368 (bioRxiv, 2025)
